Measured values reported in patent EP1785417A2, “Novel non-psychotropic cannabinoids” (priority 2000, dated 2001).
Read-outs that look alike come from different tables or passages of the source.

Legend:
[1] = system: Nitric Oxide Synthase (NOS); test: Inhibition of nitric oxide synthase (nitrite fluorimetric assay, LPS-stimulated macrophage cultures); type: cell-based; details: LPS-stimulated macrophages
From the text: (§1) Evaluation of the therapeutic effects of the novel PRS-211 compounds has now been carried out in a series of experimental systems to support the utility of these drugs as neuroprotectants, anti-inflammatory agents and anti-oxidative agents. These effects have been evaluated both in vitro and in vivo, and have been corroborated utilizing the following systems: • (a) Binding to the NMDA receptor linked channel: Non competitive antagonists of NMDA, the primary example of which is the compound MK-801, bind to a site within the NMDA receptor channel thus preventing the activation of the receptor-channel complex and the consequent neurotoxicity. The ability of various compounds to compete with the binding of tritium labeled MK-801 to brain membranes is considered a measure of their potency as NMDA non-competitive antagonists. • (b) Inhibition of prostaglandin production: The inhibitory effect of the new derivatives of Dexanabinol on prostaglandin synthesis is evaluated in macrophage cell cultures following LPS exposure to induce the inflammatory response. These assays are an indication of the anti-inflammatory activity of the individual analogs. • (c) Inhibition of Tumor Necrosis Factor Alpha: Specific aspects of the inflammatory response cascade are mediated by the cytokine TNFα. Inhibition of TNFα production and/or inhibition of TNFα release by the new analogs are assayed in macrophage cell cultures activated with LPS. This serves as another indication of the general anti-inflammatory potential of the novel compounds. • (d) Nitric Oxide Assay: As one aspect of the anti-oxidative potential of the novel analogs they were tested for their ability to inhibit the enzyme nitric oxide synthase (NOS). This assay can also serve as another indication of the anti-inflammatory cascade, as well as the anti-oxidative mechanisms. • (e) Ear Edema model: The anti-inflammatory activity of the new analogs is screened using an ear edema model in mice. This test system utilizes Croton oil or Arachidonic acid as inflammation inducers. The ability of the test compounds to prevent or diminish the inflammatory response to these stimulants is indicative of their systemic anti-inflammatory capability. • (f) Improved clinical outcome after closed head injury in rats: Severe head injury is associated with high mortality and severe neurological impairment. Animals subjected to head trauma in a controlled fashion serve as models in which to test drugs of therapeutic potential. Test compounds can be evaluated both for improved clinical outcome and for reduction of edema induced by closed head injury. The ability of compounds to reduce the severity of neurological symptoms and to reduce brain edema is considered a measure of their potency in reducing brain damage. • (g) Transient Middle cerebral artery occlusion (MCAo): The middle cerebral artery is the cerebral blood vessel most susceptible to stroke in humans. In animals, coagulation, permanent ligation or permanent placement of an occluding thread in the artery produces a permanent focal stroke affecting the MCA territory. Transient ligation or occlusion results in transient focal stroke. Both transient and permanent focal strokes result in varying degrees of edema and infarction in the affected brain regions. The ability of compounds to reduce the volumes of edema and infarction is considered a measure of their potential as anti-stroke treatment. • (h) Optic Nerve Crush: Application of mechanical pressure to the rat optical nerve results in crush injury of the axons, which is accompanied by immediate changes in oxidative metabolism and delayed axonal death and blindness. […]

NMDA receptor = test: Radioligand binding: displacement of [3H]MK-801 from rat forebrain membranes; details: for NMDA receptor binding / affinity: MK-801 binding to membranes
From the text: as §1

transient MCAo in rats = test: Transient MCAo evaluated by the staircase test; type: in vivo
Procedure: The materials for this procedure are identical to those from Physiological Example 5, except for the different concentrations of PRS-211,095. The procedural differences are as follows: • Male Sprague Dawley rats, 230-270 gr (Harlan, Israel) were used. The following compounds and their respective concentrations were tested: • Dexanabinol and analogs PRS-211,095 and PRS-211,220 in PEG ethanol cosolvent 50 mg/ml. Dexanabinol, the analogs and their vehicle were diluted in Intralipid® 20% (Pharmacia) prior to drug administration.
The procedure is essentially as described in Montoya et al. (Montoya, Campbell-Hope, Pemberton and Dunnet, J. Neurosci. Meth. 36:219-228, 1991) Animals were kept under mild food deprivation for 3-5 days, receiving 15-gr. food once a day (between 16:00 and 17:00) and free access to water. Animals were trained prior to the test for 3-5 days according to the protocol of Sharkey et. al. (Sharkey, Crawford, Butcher and Martson, Stroke 27:2282-2286, 1996).
In brief, the staircase box contains two rows of seven stairs in each. Two 45 mg food pellets were placed on each step. Animals were placed in the box for 15 minutes sessions. At the end of the session the number of eaten (grasped) and displaced pellets was counted and recorded. Animals were tested twice a day, 4 hours apart. The first session was performed between 8-9 AM and second between 12-13 PM. The animals were trained until they grasped (ate) at least 8 pellets from each set of stairs for two consecutive sessions. Up to one week after the end of the successful training session the animals underwent transient MCAo. Transient MCAo was performed in essentially the same manner as described in Physiological example 5 with the following modification at step i: • Two minutes prior to thread removal rats were re-anesthetized and administered IV with Dexanabinol 5mg/kg, analogs PRS-211,220 or PRS-211,095 at 0.5, 2.5, 5 or 10 mg/kg or vehicle 5 ml/kg. One additional group was sham-treated.
(§2) Animals were allowed to recover from the surgery for five days. The mild food deprivation was re-employed during the days following the ischemic insult. They were tested in the staircase box using the above method for 9-12 days. Animals were weighed twice a week during this period.
At the end of the evaluation period, animals were euthanized with pentobarbitone 100 mg/kg IP. The animals were perfused through the heart with heparinized 4% formaldehyde solution in PBS (pH 7.4). Brains were then removed, and kept in the same solution for at least 24h. Then the brains - from the rostral side of the cortex to the cerebellum- were sunk in 30% sucrose in PBS, cryosectioned (20 µm), dried and stained with thionin for histological evaluation of the brain infarct volume. Eight sections at the levels of: 3.3;+2.8;+1.8; +0.8; -0.4;-1.4; -2.2; and -3.4 from Bregma were measured (Swanson, Rat Brain Atlas, 1992). Sections were captured by a CCD camera (V-tech MP-470) and image analyzed (Scion image 1.62A). Infarct size was determined from the series of the 8 sections by either calculation of the infarct volume (mm3) by summing the series of mean lesion areas of two adjacent sections multiplied by the distance between them or calculation of the mean infarct size as percentage of the contralateral hemisphere size; calculation of the mean of the surviving ipsilateral side as percentage of the contralateral hemisphere size; calculation of the mean ipsilateral side ventricle as percentage of the contralateral hemisphere ventricle.
• a. The infarct size was compared using ANOVA (analysis of variance) followed by Duncan's post hoc test. • b. […]

ear edema model in mice = test: Ear edema model; type: in vivo; details: Mus musculus, Croton oil (CO) as inducer, IP
From the text: as §1

PGE2 = test: Inhibition of prostaglandin synthesis (PGE2) in LPS-stimulated macrophage cell cultures; type: cell-based; details: LPS-stimulated macrophages
From the text: as §1

[2] = Body weight gain during staircase testing after transient MCAo; type: in vivo, rats; details: compared to base line
Procedure: as §2
Animals were kept under mild food deprivation during the staircase testing (except during weekends). Under these conditions, the following results were observed: • Sham and PRS-211,095 10 mg/kg treated rats gained the maximal body weight (15 and 17% respectively compared to base line). […] These differences were not statistically different.

TNFα = test: Inhibition of TNFα in LPS-stimulated macrophage cell cultures (ELISA); type: cell-based; details: LPS-stimulated macrophages
From the text: as §1

[3] = system: transient middle cerebral artery occlusion in rats; test: Transient middle cerebral artery occlusion (MCAo), infarct size evaluation; type: in vivo; details: IV, one week after the ischemic insult
From the text: Experimental design. The design was a randomized one, performed in a masked fashion as to whether drug or vehicle was being given, and an attempt was made to generate approximately equal numbers of drug- and vehicle-treated animals.
• a. Male rats (8 /treatment group) 320-380 gr. (Harlan Israel). • b. Halothane (Rhone Poulenc France) • c. Pentobarbitone (Pental Veterinary, CTS Israel). • d. Poly - L - Lysine (Sigma, USA). • e. Silk suture material 3-0 and 4-0. • f. Nylon (Polyamid) suture material 3-0. Four cm pieces were cut and positioned in a solution of 1% Poly - L - Lysine for 1 minute and dried in an oven (60 ° C) for 60 minutes. The tip of each piece was rounded under a flame. • g. Saline (Teva Medical). • h. Blank cremophor ethanol cosolvent (Pharmos). • i. Dexanabinol in cremophor ethanol cosolvent 50 mg/ml. (Both Dexanabinol and its vehicle were diluted in saline prior to drug administration. • j. Analogs PRS-211,092, PRS-211,095, PRS-211,128 PRS-211,132 and PRS-211,220 in cremophor ethanol cosolvent, 50 mg/ml. • k. The analogs were diluted in saline prior to drug administration.
• a. Surgical details of the MCAo method used for testing dexanabinol analogs, are presented in Belayev, et al., (Belayev, Busto, Weizhao, and Ginsberg, Stroke 26:2313-2319, 1995) which is incorporated herein in its entirety by reference. • b. Two hours after the start of MCAO, the animals were reanesthetized with halothane, the neck wound was re-opened and the nylon thread pulled out of the Internal carotid artery (ICA). The skin wound was then closed with 3-0 silk suture material and the animals allowed to recover from the anesthesia. • c. Three sets of animals were tested. In the first test immediately (2+0 hours) before thread removal the animals were injected IV with either analogs PRS-211,095, PRS-211,128, PRS-211,132, or Dexanabinol (PRS-211,007) each at a dosage of 5 mg/kg. One group of animals was treated with 5ml/kg vehicle alone. In another group, the animals subjected to "sham" operation, the suture was passed into the ICA, as described above, but immediately withdrawn. In the second set dexanabinol, PRS-211,092, PRS-211,095 and PRS-211,220 were used, at 2+0 hours. In the third set dexanabinol, PRS-211,092, PRS-211,095 and PRS-211,220 were administered 1 hour after thread removal (2+1 hours). Laser Doppler Flow (LDF) determined the success of MCAo - a drop of more then 50% in cerebral blood flow was considered as a sign of successful MCAo. Although LDF was a helpful corroborative sign, clinical outcome remained the final inclusion/exclusion criterion, since, with the exception of the PRS-211,220 staircase study, LDF was introduced only after initiation of the study.
A detailed investigation of neurological performance was carried out on the first, third and the 7th day after the MCAo. Two parameters were examined: posture and the flexion reflex (based on Nokon and Chuang, NeuroReport 9, 1998: 2081-2084). Animals were scored according to their performance:
One week after the ischemic insult, animals were euthanized with pentobarbitone 100 mg/kg IP. The animals were perfused through the heart with heparinized 4% formaldehyde solution in PBS (pH 7.4). Brains were then removed, and kept in the same solution before preparation for histological evaluation of the brain infarct volume.

[4] = system: rat model of myocardial ischemia; test: Rat model of myocardial ischemia and reperfusion; type: in vivo, rats; details: given 15 minutes before occlusion; 45 minutes occlusion, 4 hours reperfusion; versus vehicle
[5] = displacement of [3H]MK-801, rat forebrain membranes, read-out: NMDA BINDING IC50

CCCCCCC(C)(C)c1cc(O)c2c(c1)OC(C)(C)[C@H]1CC=C(Cn3cccn3)C[C@H]21 [211,220-000, (+)-(3S,4S)-6,6-Dimethyl-(1,1-dimethylheptyl)-1-hydroxy-9-(pyrazolomethyl)-6a,7,10,10a-tetrahydro-6H-dibenzo[b,d]pyran]
inhibition at 10 µM [1]: 11%
NMDA receptor binding / affinity (NMDA receptor): relatively high affinity
IC50 (NMDA receptor; [3H]MK-801 binding, text to Figure 2, read-out: mean IC50): 350 nM
IC50 (NMDA receptor; [5]): 350 nM
pellet consumption, improvement over vehicle (transient MCAo in rats; 0.1 mg/kg, contralateral): 20-30%
pellet consumption, improvement relative to vehicle alone (transient MCAo in rats; 0.5 mg/kg, contralateral, p<0.05): > 60%
potency relative to PRS-211,095 and dexanabinol (transient MCAo in rats; 0.5 mg/kg, session 3 of the staircase): at least 10 times
pellet consumption, improvement over vehicle (transient MCAo in rats; 2.5 mg/kg, contralateral): 20-30%
pellet consumption, improvement over vehicle (transient MCAo in rats; 5.0 mg/kg, contralateral): 20-30%
Mortality Rate(%) (transient MCAo in rats; Table 5, 0.1 mg/kg IV): 25%
No. Dead Animals (transient MCAo in rats; Table 5, 0.1 mg/kg IV): 4
Mortality Rate(%) (transient MCAo in rats; Table 5, 0.5 mg/kg IV): 18.75%
No. Dead Animals (transient MCAo in rats; Table 5, 0.5 mg/kg IV): 3
Mortality Rate(%) (transient MCAo in rats; Table 5, 2.5 mg/kg IV): 30.7%
No. Dead Animals (transient MCAo in rats; Table 5, 2.5 mg/kg IV): 4
Mortality Rate(%) (transient MCAo in rats; Table 5, 5 mg/kg IV): 14%
No. Dead Animals (transient MCAo in rats; Table 5, 5 mg/kg IV): 2
ED50 (ear edema model in mice): 57 µmol/kg
inhibition at 10 µM (PGE2): 47%
body weight gain ([2]; 0.1 mg/kg): 3%
body weight gain ([2]; 0.5 mg/kg): 10%
body weight gain ([2]; 2.5 mg/kg): 5%
body weight gain ([2]; 5 mg/kg): 4%
inhibition at 10 µM (TNFα): 11%

CCCCCCC(C)(C)c1cc(O)c2c(c1)OC(C)(C)[C@H]1CC=C(CSc3ncc[nH]3)C[C@H]21 (single isomer, unassigned) [211,092-000]
inhibition at 10 µM [1]: 0%
NMDA receptor binding / affinity (NMDA receptor): low affinity
IC50 (NMDA receptor; [5]): > 50000 nM
reduction of infarct size [3]: 52%
ED50 (ear edema model in mice): 28 µmol/kg
inhibition at 10 µM (PGE2): 57%
infarct size (AN/AR, AN/LV) [4]: clear decrease in infarct size
inhibition at 10 µM (TNFα): 22%
